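Dose response: 5 concentrations. Exposure: 48 h. Format: 96-well plates. Endpoint: linear interpolation; highest concentration if not reached. GI50 = concentration required for 50% inhibition of growth. TGI is the concentration that stops growth completely.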
How the values were obtained:
Assay in all cases: NCI tumour cell line growth inhibition, 48 h
M14 melanoma = system: M14 melanoma
SR leukemia = system: SR leukemia
OVCAR-8 ovarian = system: OVCAR-8 ovarian
SW-620 colon = system: SW-620 colon
NCI-H23 lung = system: NCI-H23 lung
NCI/ADR-RES ovarian = system: NCI/ADR-RES ovarian
RXF 393 renal = system: RXF 393 renal
MDA-MB-435 = system: MDA-MB-435
PC-3 prostate = system: PC-3 prostate
NCI-H522 lung = system: NCI-H522 lung
NCI-H226 lung = system: NCI-H226 lung
K-562 leukemia = system: K-562 leukemia
UACC-257 melanoma = system: UACC-257 melanoma
U251 CNS = system: U251 CNS
HCT-116 colon = system: HCT-116 colon
KM12 colon = system: KM12 colon
A498 renal = system: A498 renal
NCI-H460 lung = system: NCI-H460 lung
ACHN renal = system: ACHN renal
DU-145 prostate = system: DU-145 prostate
UO-31 renal = system: UO-31 renal
HS 578T breast = system: HS 578T breast
SK-OV-3 ovarian = system: SK-OV-3 ovarian
MDA-MB-231 breast = system: MDA-MB-231 breast
HOP-92 NSCLC = system: HOP-92 NSCLC
SF-295 CNS = system: SF-295 CNS
OVCAR-4 ovarian = system: OVCAR-4 ovarian
SF-268 CNS = system: SF-268 CNS
HOP-62 NSCLC = system: HOP-62 NSCLC
OVCAR-5 ovarian = system: OVCAR-5 ovarian
T-47D breast = system: T-47D breast
SK-MEL-2 melanoma = system: SK-MEL-2 melanoma
HT29 colon = system: HT29 colon
EKVX NSCLC = system: EKVX NSCLC
MCF7 breast = system: MCF7 breast
HCC-2998 colon = system: HCC-2998 colon
IGROV1 ovarian = system: IGROV1 ovarian
MOLT-4 leukemia = system: MOLT-4 leukemia
HL-60(TB) leukemia = system: HL-60(TB) leukemia
786-0 renal = system: 786-0 renal
CAKI-1 renal = system: CAKI-1 renal
TK-10 renal = system: TK-10 renal
OVCAR-3 ovarian = system: OVCAR-3 ovarian
LOX IMVI melanoma = system: LOX IMVI melanoma
SF-539 CNS = system: SF-539 CNS
SK-MEL-28 melanoma = system: SK-MEL-28 melanoma
CCRF-CEM leukemia = system: CCRF-CEM leukemia
HCT-15 colon = system: HCT-15 colon
SK-MEL-5 melanoma = system: SK-MEL-5 melanoma
RPMI-8226 leukemia = system: RPMI-8226 leukemia
A549 NSCLC = system: A549 NSCLC
MALME-3M melanoma = system: MALME-3M melanoma
SNB-75 CNS = system: SNB-75 CNS
SNB-19 CNS = system: SNB-19 CNS
SN12C renal = system: SN12C renal
COLO 205 colon = system: COLO 205 colon
UACC-62 melanoma = system: UACC-62 melanoma
BT-549 breast = system: BT-549 breast

SMILES: O=C1/C(=C/C=C/c2ccccc2)N=C(c2ccccc2)N1C1Nc2cc3c(cc2S1)NC(N1C(=O)/C(=C/C=C/c2ccccc2)N=C1c1ccccc1)S3 (configuration not stated)
- TGI (M14 melanoma): > 100 µM
- TGI (SR leukemia): 27.8 µM
- TGI (OVCAR-8 ovarian): > 100 µM
- TGI (SW-620 colon): > 100 µM
- TGI (NCI-H23 lung): > 100 µM
- TGI (NCI/ADR-RES ovarian): > 100 µM
- TGI (RXF 393 renal): > 100 µM
- TGI (MDA-MB-435): > 100 µM
- TGI (PC-3 prostate): > 100 µM
- TGI (NCI-H522 lung): 28.8 µM
- TGI (NCI-H226 lung): > 100 µM
- TGI (K-562 leukemia): > 100 µM
- TGI (UACC-257 melanoma): > 100 µM
- TGI (U251 CNS): > 100 µM
- TGI (HCT-116 colon): > 100 µM
- TGI (KM12 colon): > 100 µM
- TGI (A498 renal): > 100 µM
- TGI (NCI-H460 lung): > 100 µM
- TGI (ACHN renal): > 100 µM
- TGI (DU-145 prostate): > 100 µM
- TGI (UO-31 renal): > 100 µM
- TGI (HS 578T breast): > 100 µM
- TGI (SK-OV-3 ovarian): > 100 µM
- TGI (MDA-MB-231 breast): > 100 µM
- TGI (HOP-92 NSCLC): 85.2 µM
- TGI (SF-295 CNS): > 100 µM
- TGI (OVCAR-4 ovarian): > 100 µM
- TGI (SF-268 CNS): > 100 µM
- TGI (HOP-62 NSCLC): > 100 µM
- TGI (OVCAR-5 ovarian): > 100 µM
- TGI (T-47D breast): > 100 µM
- TGI (SK-MEL-2 melanoma): > 100 µM
- TGI (HT29 colon): > 100 µM
- TGI (EKVX NSCLC): > 100 µM
- TGI (MCF7 breast): > 100 µM
- TGI (HCC-2998 colon): 37.2 µM
- TGI (IGROV1 ovarian): > 100 µM
- TGI (MOLT-4 leukemia): 0.302 µM
- TGI (HL-60(TB) leukemia): > 100 µM
- TGI (786-0 renal): > 100 µM
- TGI (CAKI-1 renal): > 100 µM
- TGI (TK-10 renal): > 100 µM
- TGI (OVCAR-3 ovarian): > 100 µM
- TGI (LOX IMVI melanoma): > 100 µM
- TGI (SF-539 CNS): > 100 µM
- TGI (SK-MEL-28 melanoma): > 100 µM
- TGI (CCRF-CEM leukemia): > 100 µM
- TGI (HCT-15 colon): > 100 µM
- TGI (SK-MEL-5 melanoma): > 100 µM
- TGI (RPMI-8226 leukemia): 57 µM

SMILES: COc1ccccc1OCC(=O)Nc1sc2c(c1C(N)=O)CCC2
- GI50 (M14 melanoma): > 100 µM
- TGI (M14 melanoma): > 100 µM
- GI50 (SR leukemia): > 100 µM
- TGI (SR leukemia): > 100 µM
- GI50 (OVCAR-8 ovarian): 12.7 µM
- TGI (OVCAR-8 ovarian): > 100 µM
- GI50 (SW-620 colon): > 100 µM
- TGI (SW-620 colon): > 100 µM
- GI50 (NCI-H23 lung): > 100 µM
- TGI (NCI-H23 lung): > 100 µM
- GI50 (NCI/ADR-RES ovarian): > 100 µM
- TGI (NCI/ADR-RES ovarian): > 100 µM
- GI50 (MDA-MB-435): > 100 µM
- TGI (MDA-MB-435): > 100 µM
- GI50 (NCI-H522 lung): > 100 µM
- TGI (NCI-H522 lung): > 100 µM
- GI50 (NCI-H226 lung): 44.3 µM
- TGI (NCI-H226 lung): > 100 µM
- GI50 (K-562 leukemia): > 100 µM
- TGI (K-562 leukemia): > 100 µM
- GI50 (A549 NSCLC): 32.4 µM
- TGI (A549 NSCLC): > 100 µM
- GI50 (U251 CNS): > 100 µM
- TGI (U251 CNS): > 100 µM
- GI50 (HCT-116 colon): > 100 µM
- TGI (HCT-116 colon): > 100 µM
- GI50 (KM12 colon): > 100 µM
- TGI (KM12 colon): > 100 µM
- GI50 (A498 renal): > 100 µM
- TGI (A498 renal): > 100 µM
- GI50 (NCI-H460 lung): > 100 µM
- TGI (NCI-H460 lung): > 100 µM
- GI50 (ACHN renal): > 100 µM
- TGI (ACHN renal): > 100 µM
- GI50 (MALME-3M melanoma): > 100 µM
- TGI (MALME-3M melanoma): > 100 µM
- GI50 (DU-145 prostate): > 100 µM
- TGI (DU-145 prostate): > 100 µM
- GI50 (UO-31 renal): > 100 µM
- TGI (UO-31 renal): > 100 µM
- GI50 (HS 578T breast): > 100 µM
- TGI (HS 578T breast): > 100 µM
- GI50 (SK-OV-3 ovarian): > 100 µM
- TGI (SK-OV-3 ovarian): > 100 µM
- GI50 (MDA-MB-231 breast): > 100 µM
- TGI (MDA-MB-231 breast): > 100 µM
- GI50 (SNB-75 CNS): > 100 µM
- TGI (SNB-75 CNS): > 100 µM
- GI50 (HOP-92 NSCLC): > 100 µM
- TGI (HOP-92 NSCLC): > 100 µM
- GI50 (SNB-19 CNS): > 100 µM
- TGI (SNB-19 CNS): > 100 µM
- GI50 (OVCAR-4 ovarian): > 100 µM
- TGI (OVCAR-4 ovarian): > 100 µM
- GI50 (SF-268 CNS): > 100 µM
- TGI (SF-268 CNS): > 100 µM
- GI50 (HOP-62 NSCLC): > 100 µM
- TGI (HOP-62 NSCLC): > 100 µM
- GI50 (OVCAR-5 ovarian): > 100 µM
- TGI (OVCAR-5 ovarian): > 100 µM
- GI50 (T-47D breast): > 100 µM
- TGI (T-47D breast): > 100 µM
- TGI (SK-MEL-2 melanoma): 68 µM
- GI50 (SN12C renal): > 100 µM
- TGI (SN12C renal): > 100 µM
- GI50 (HT29 colon): > 100 µM
- TGI (HT29 colon): > 100 µM
- GI50 (EKVX NSCLC): > 100 µM
- TGI (EKVX NSCLC): > 100 µM
- GI50 (MCF7 breast): > 100 µM
- TGI (MCF7 breast): > 100 µM
- GI50 (HCC-2998 colon): > 100 µM
- TGI (HCC-2998 colon): > 100 µM
- GI50 (IGROV1 ovarian): > 100 µM
- TGI (IGROV1 ovarian): > 100 µM
- GI50 (MOLT-4 leukemia): > 100 µM
- TGI (MOLT-4 leukemia): > 100 µM
- GI50 (HL-60(TB) leukemia): > 100 µM
- TGI (HL-60(TB) leukemia): > 100 µM
- GI50 (COLO 205 colon): > 100 µM
- TGI (COLO 205 colon): > 100 µM
- GI50 (786-0 renal): > 100 µM
- TGI (786-0 renal): > 100 µM
- GI50 (CAKI-1 renal): > 100 µM
- TGI (CAKI-1 renal): > 100 µM
- GI50 (TK-10 renal): > 100 µM
- TGI (TK-10 renal): > 100 µM
- GI50 (OVCAR-3 ovarian): > 100 µM
- TGI (OVCAR-3 ovarian): > 100 µM
- GI50 (UACC-62 melanoma): 38.1 µM
- TGI (UACC-62 melanoma): > 100 µM
- GI50 (LOX IMVI melanoma): > 100 µM
- TGI (LOX IMVI melanoma): > 100 µM
- GI50 (SF-539 CNS): > 100 µM
- TGI (SF-539 CNS): > 100 µM
- GI50 (SK-MEL-28 melanoma): > 100 µM
- TGI (SK-MEL-28 melanoma): > 100 µM
- GI50 (BT-549 breast): > 100 µM
- TGI (BT-549 breast): > 100 µM
- GI50 (CCRF-CEM leukemia): > 100 µM
- TGI (CCRF-CEM leukemia): > 100 µM
- GI50 (HCT-15 colon): 33.4 µM
- TGI (HCT-15 colon): > 100 µM
- GI50 (SK-MEL-5 melanoma): 70.6 µM
- TGI (SK-MEL-5 melanoma): > 100 µM
- GI50 (RPMI-8226 leukemia): > 100 µM
- TGI (RPMI-8226 leukemia): > 100 µM

Reference: PubChem BioAssay (NCI)
